Measurements from patent US8785416B2, “Sulphated disaccharides for the treatment of neurodegenerative and/or neurovascular diseases” (Bioiberica, S.A., priority 2009, dated 2014).

Assays:
[1] = system: rat hippocampal slices; assay: Oxygen and glucose deprivation (15 minutes OGD, 2 hours reoxygenation) in hippocampal slices, MTT cell viability; assay type: cell-based
Procedure: Male Spague Dawley strain rats (250-325 g) were used. After anaesthesia by means of an intraperitoneal injection of 60 mg/Kg sodium pentobarbital (Euta-Lender®), they were decapitated with a guillotine and the brain was extracted after a craniotomy. The brain was immediately submersed in a dissection solution, a cold (4° C.) modified Krebs-Henseleit solution at pH 7.4, the composition of which is: 120 mM NaCl, 2 mM KCl, 0.5 mM CaCl2, 26 mM NaHCO3, 10 mM MgSO4, 1.18 mM KH2PO4, 11 mM glucose and 200 mM sucrose, bubbled with 95% O2-5% CO2. The hippocampi were isolated, embedded in 2% low melting point agarose (Sigma-Aldrich), and cut into 350 μm transverse slices in a vibratome (Leica VT1000S).
After the cutting in the vibratome, the slices were transferred to a vial with sucrose-free dissection Krebs solution, bubbled with 95% O2-5% CO2 for 60 minutes (equilibrium period).
After the equilibrating period, the medium was removed and an oxygenated solution (normal Krebs solution (120 mM NaCl, 2 mM KCl, 2 mM CaCl2, 26 mM NaHCO3, 1.19 mM MgSO4, 1.18 mM KH2PO4 and 11 mM glucose), bubbled with 5% CO2 and 95% O2 for 30 minutes (preincubation period), was introduced. The baseline slices were maintained in this oxygenated solution throughout the entire experiment. To induce OGD, the oxygenated solution was replaced with another one which lacked glucose and was bubbled with a mixture of gases of 5% CO2 and 95% N2 (anoxic solution). The slices were in a bath at 37° C. After inducing OGD, the anoxic medium was replaced with another one which contained the oxygenated solution (reoxygenation period).
To evaluate the effect of the compounds, they were incubated for the 30 minutes of the preincubation and throughout the OGD and during the reoxygenation. Two OGD-reoxygenation protocols were used: (i) 1 hour of OGD and 2 hours of reoxygenation and (ii) 15 minutes of OGD followed by 2 hours of reoxygenation.
When the OGD-reoxygenation protocol (ii): 15 minutes of OGD followed by 2 hours of reoxygenation was used, the slices were incubated with increasing concentrations of compound Ic (0.3 and 1 μM) or with increasing concentrations of compound Ib (1 and 3 μM). In the same study these two compounds of the invention were compared with N-acetylcysteine (NAC) at 10 mM. The baseline (slices in the absence of compound Ic or Ib and of OGD) and the control (slices in the absence of compound Ic or Ib and with OGD) were also included.
For the protocol of 15 minutes of OGD followed by 2 hours of reoxygenation, the cell viability was evaluated by means of the tetrazolium salt MTT, which is internalized in those cells which are viable and are therefore capable of reducing the tetrazolium to formazan which is an insoluble and coloured product which is deposited in the […]. To that end, after the experiment had ended, the hippocampal slices were incubated with MTT at a final concentration of 0.5 mg/mL in a Krebs-HEPES solution (in mM: NaCl, 144; KCl, 5.9; MgCl2, 1.2; CaCl2, 2; HEPES, 10; glucose, 11; at pH 7.3) at 37° C. After 3 hours, the medium was removed and the formazan precipitated in the solution was dissolved in dimethylsulfoxide. Then, the absorbance was measured in a plate reader (Labsystems iEMS Reader MF), at 500 nm. The data were represented taking the result of the baseline slices, i.e., those not subjected to OGD, as 100% viability.

[2] = system: SH-SY5Y human neuroblastoma cells; assay: Neuroprotection against cell death induced by rotenone plus oligomycin-A (oxidative stress), LDH release; assay type: cell-based
Procedure: An oxidative stress model consists of blocking mitochondrial respiratory chain complexes I and V by means of the combination of rotenone plus oligomycin-A, respectively. As a result of the interruption of the mitochondrial respiratory chain, the cell is unable to continue producing ATP, and the free radicals are generated exceeding the capacity of the cell to neutralize them, and as a result, cell death occurs.
SH-SY5Y human neuroblastoma cells were cultured in a monolayer in 75 cm^2 flasks with a vented stopper. The culture medium used was Dulbecco's Modified Eagle's Medium (DMEM) with a high glucose content ([…]) and supplemented with 10% foetal bovine serum, 2 mM L-Glutamine, 50 IU/mL penicillin and 50 μg/mL streptomycin.
The cell cultures were maintained in an incubator at 37° C. in a humid environment, with 5% CO2 and 95% air. The culture medium was changed twice a week, performing 1:4 passages when the cells reached 70-80% confluence. To perform the passages, the cells were detached by means of their treatment with trypsin-EDTA.
For the cell viability assays, the cells were seeded in sterile 48-well plates at a density of 80,000 cells/well. The experiments were performed 24-48 hours after their seeding.
To evaluate the neuroprotective effect of the compounds, the SH-SY5Y cells were preincubated for 24 hours with the compound under study, and subsequently incubated for 24 hours with the compound under study in the presence of the toxic substances (a combination of 10 μM rotenone and 1 μM oligomycin-A); at the end of this period the cell viability was evaluated by quantifying the release of the LDH enzyme.
The assessment of this enzyme was performed by means of a commercial kit (Cytotoxicity detection kit-LDH; Roche) following the instructions of the company. The samples were colorimetrically analyzed in a plate reader (Labsystems iEMS Reader MF), using the suitable filter at 490-600 nm and obtaining the absorbance values.
The % of cell death was defined as the % of LDH released into the extracellular medium with respect to the total (sum of intra- and extracellular LDH).
Compounds Ic and Ib were studied at four concentrations (0.001, 0.003, 0.01 and 0.03 μM), chondroitin sulphate (supplied by Bioibérica, S.A.) was assayed at two concentrations (10 and 60 μM) and trolox (Sigma Aldrich) was assayed at two concentrations (30 and 300 μM). The experiment also included the baseline (SH-SY5Y cells in the absence of compound and of toxic stimulus) and the control (SH-SY5Y cells cultured in the absence of compound and in the presence of the toxic stimulus rotenone plus oligomycin).

[3] = system: SH-SY5Y human neuroblastoma cell line; assay: Cell toxicity study, LDH release, SH-SY5Y cells incubated 48 hours; assay type: cell-based; settings: 100 μM, 48 hours incubation
Procedure: The cell toxicity studies were performed on the SH-SY5Y human neuroblastoma cell line, incubating said cells for 48 hours with the compound under study. The cell viability was assessed by quantifying the release of lactate dehydrogenase (LDH), which is a cytoplasmic enzyme which is released into the extracellular medium when the integrity of the cytoplasmic membrane is lost.

[4] = system: mice (photothrombotic stroke model); assay: Experimental photothrombotic stroke model, cortical infarction volume; assay type: in vivo, mouse; settings: 15 mg/kg i.p.
Source text: Neuronal death occurs during brain ischemia or stroke; therefore a medicament with a neuroprotective profile can have a therapeutic potential in patients who have suffered from a cerebral infarction or stroke. To explore if the compounds of formula (I) can offer neuroprotection in vivo, the experimental photothrombotic stroke model was used. In the photothrombosis model a focal cerebral infarction is induced in the area of the cortex illuminated by means of a cold light source in mice previously treated with the Rose Bengal stain; this stain is photosensitive and produces free radicals when it is stimulated with light, causing lesions in the surrounding vascular endothelium, which causes platelet aggregation and the formation of thrombi in the microvessels of the cerebral cortex (Non-invasive induction of focal cerebral ischemia in mice by photothrombosis of cortical microvessels: characterization of inflammatory responses, M. Schroeter et al., J Neurosci Methods. 117(1), 43-49. (2002); Melatonin reduces infarction volume in a photothrombotic stroke model in the wild-type but not cyclooxygenase-1-gene knockout mice, L Y. Zhou et al., J Pineal Res. 41(2), 150-156. (2006)).
Adult male Swiss breed mice from Harlan laboratories (Barcelona), with a weight of about 30 g, were used. Once anaesthetised with isoflurane, the mice were placed in a stereotaxic frame, maintaining their rectal temperature at 37±0.5° C. during the entire procedure. Subsequently, the cranium was exposed by means of a dorsomedial incision in the skin and the periosteum was removed. By means of the use of a micromanipulator, a fibre-optic cable was placed to emit a beam of light of 1.9 mm in diameter and 3000° K, connected to a cold light source (Zeiss KL 1500), in 2.0 mm posterior and 3.0 mm lateral to Bregma on the right side. According to the mouse brain atlas (Franklin and Paxinos, 1986), the sensitive-motor cortex, the putamen caudate and the hippocampus are right below this stereotaxic position. Then, the mice were injected with 1 mg of the Rose Bengal photosensitive probe and the brain was illuminated through the intact cranium for 30 minutes. Finally, the skin was sutured and the animals were left in a cage until their recovery under observation.
The animals were sacrificed by decapitation 72 hours after the ischemia. […]
To quantify the cortical cerebral infarction volume, the sections stained with TTC were scanned on both their rostral and caudal part and by means of the image analysis programme ImageJ 1.41 (National Institutes of Health, Bethesda, Md., USA) the area of the ipsi-, contralateral cortex and the cerebral infarction of each of the sections scanned, both in the caudal and rostral part, was quantified. Subsequently, the cerebral infarction volume was calculated. […]

## CC(=O)N[C@@H](CS)C(=O)O [N-acetylcysteine, reference compound]
[1]; Rattus norvegicus, 10 mM, 15 minutes OGD, 2 hours reoxygenation, baseline 100%, control 67%, read-out: maximum statistically significant protection (cell viability, MTT)
  viability at 10000 µM: 83%

## CO[C@H]1OC(COS(=O)(=O)[O-])[C@@H](O)[C@H](O[C@@H]2OC(C(=O)[O-])[C@@H](O)[C@H](O)C2O)C1NC(C)=O.[Na+].[Na+] (stereo partly drawn) [compound Ib]
[2]; 0.03 μM, 24 h preincubation + 24 h with 10 μM rotenone and 1 μM oligomycin-A
  maximum statistically significant protection against cell death (% of released LDH) induced by rotenone and oligomycin: 40%
[2]; Ic, Ib at 0.001-0.03 μM vs chondroitin sulphate 10 and 60 μM, trolox 30 and 300 μM
  protective effect compared with chondroitin sulphate and trolox: more effective than chondroitin sulphate and than trolox
[1]; Ic 0.3 and 1 μM, Ib 1 and 3 μM vs N-acetylcysteine 10 mM
  efficacy in comparison with N-acetylcysteine: higher efficacy
[1]; Rattus norvegicus, 3 μM, 15 minutes OGD, 2 hours reoxygenation, baseline 100%, control 67%, read-out: maximum statistically significant protection (cell viability, MTT)
  viability at 3 µM: 85%
[3]
  cell toxicity (release of LDH): did not show toxicity

## Cc1c(C)c2c(c(C)c1O)CCC(C)(C(=O)O)O2 (stereo not drawn) [trolox, reference compound]
[2]; 30 and 300 μM
  effect on cell death induced by rotenone and oligomycin: reduced cell death

## COc1ccc2[nH]cc(CCNC(C)=O)c2c1 [melatonin, reference compound]
[4]; 72 hours after ischemia, saline 6.1±2.18%, mean and standard deviation
  cortical infarction volume: 4.3±1.63%
[4]; p<0.05 vs saline
  protection (reduction of cortical infarction volume): 29%
